Source: the NIST ThermoML archive (doi:10.1021/je060116w)

Settings: Hot wire method

FC(F)CC(F)(F)F [1,1,1,3,3-pentafluoropropane]
Liquid
Settings | thermal conductivity [W/m/K]
244.4 K | 0.1044
244.64 K | 0.1043
244.9 K | 0.1041
254.41 K | 0.1014
254.67 K | 0.1014
254.94 K | 0.1013
264.37 K | 0.09835
264.64 K | 0.0982
264.91 K | 0.0981
274.38 K | 0.09519
274.66 K | 0.09525
274.94 K | 0.09497
284.51 K | 0.09219
284.8 K | 0.09211
285.08 K | 0.09178
294.42 K | 0.08894
294.67 K | 0.08895
294.99 K | 0.08862
304.46 K | 0.08598
304.72 K | 0.08564
305.08 K | 0.08542
314.17 K | 0.0826
314.45 K | 0.08276
314.53 K | 0.08259
314.76 K | 0.08269
314.8 K | 0.08262
315.13 K | 0.08252
315.17 K | 0.08234
324.46 K | 0.0795
324.78 K | 0.07945
325.15 K | 0.07953
334.52 K | 0.07649
334.84 K | 0.0765
335.21 K | 0.0765
344.59 K | 0.07365
344.93 K | 0.07351
345.31 K | 0.07356
354.66 K | 0.07059
355 K | 0.07059
355.37 K | 0.07058
364.67 K | 0.06648
365.04 K | 0.06636
365.43 K | 0.06604
374.69 K | 0.06371
375.06 K | 0.0631
375.44 K | 0.06262
384.7 K | 0.06117
385.14 K | 0.0606
385.48 K | 0.05985
394.71 K | 0.05833
395.1 K | 0.05813
395.52 K | 0.05783
404.77 K | 0.05598
405.12 K | 0.05595
405.54 K | 0.05564
414.79 K | 0.05331
415.16 K | 0.05316
415.54 K | 0.0529

Gas
Settings | thermal conductivity [W/m/K]
296.14 K, 121.3 kPa | 0.01256
297.06 K, 121.3 kPa | 0.01257
297.76 K, 121.3 kPa | 0.01267
305.45 K, 123.2 kPa | 0.01342
305.99 K, 123.2 kPa | 0.01345
306.63 K, 123.2 kPa | 0.01352
315.24 K, 203.4 kPa | 0.01425
315.99 K, 203.4 kPa | 0.01428
316.55 K, 203.4 kPa | 0.01435
325.29 K, 203.3 kPa | 0.0152
326.02 K, 203.3 kPa | 0.01524
326.56 K, 203.3 kPa | 0.01527
335.28 K, 291.6 kPa | 0.01607
335.96 K, 291.6 kPa | 0.0161
336.77 K, 291.6 kPa | 0.01611
345.15 K, 303 kPa | 0.01704
345.77 K, 303 kPa | 0.0171
346.5 K, 303 kPa | 0.01714
354.97 K, 738.2 kPa | 0.01782
355.04 K, 579.7 kPa | 0.01778
355.53 K, 738.2 kPa | 0.01786
355.63 K, 579.7 kPa | 0.01782
356.17 K, 738.2 kPa | 0.0179
356.29 K, 579.7 kPa | 0.01791
364.88 K, 954.5 kPa | 0.01876
365.05 K, 617.9 kPa | 0.01865
365.4 K, 954.5 kPa | 0.01875
365.61 K, 617.9 kPa | 0.01873
365.96 K, 954.5 kPa | 0.0189
366.24 K, 617.9 kPa | 0.01878
374.84 K, 1243 kPa | 0.01982
374.99 K, 997 kPa | 0.01966
375.13 K, 604.2 kPa | 0.01956
375.31 K, 1243 kPa | 0.01995
375.48 K, 997 kPa | 0.01969
375.71 K, 604.2 kPa | 0.01959
375.83 K, 1243 kPa | 0.02001
376.05 K, 997 kPa | 0.01976
376.31 K, 604.2 kPa | 0.01963
384.79 K, 1489.1 kPa | 0.0211
385.04 K, 998.9 kPa | 0.02061
385.2 K, 598.1 kPa | 0.02052
385.21 K, 1489.1 kPa | 0.02101
385.55 K, 998.9 kPa | 0.02067
385.68 K, 1489.1 kPa | 0.02112
385.76 K, 598.1 kPa | 0.02059
386.13 K, 998.9 kPa | 0.02072
386.35 K, 598.1 kPa | 0.0206
394.74 K, 1765.3 kPa | 0.02246
394.9 K, 1498.3 kPa | 0.02208
395.07 K, 602.5 kPa | 0.02148
395.09 K, 1004.6 kPa | 0.02149
395.16 K, 1765.3 kPa | 0.02251
395.36 K, 1498.3 kPa | 0.02216
395.52 K, 1765.3 kPa | 0.02258
395.58 K, 602.5 kPa | 0.02153
395.6 K, 1004.6 kPa | 0.02161
395.75 K, 1498.3 kPa | 0.02218
395.94 K, 602.5 kPa | 0.02147
396.04 K, 1004.6 kPa | 0.02168
404.55 K, 2269.8 kPa | 0.02483
404.75 K, 1999.2 kPa | 0.02362
404.85 K, 1500.7 kPa | 0.02277
404.89 K, 2269.8 kPa | 0.02475
405 K, 998.4 kPa | 0.02248
405.12 K, 604.3 kPa | 0.02248
405.14 K, 1999.2 kPa | 0.02364
405.29 K, 2269.8 kPa | 0.02484
405.3 K, 1500.7 kPa | 0.02285
405.48 K, 998.4 kPa | 0.02253
405.55 K, 1999.2 kPa | 0.02369
405.62 K, 604.3 kPa | 0.02249
405.78 K, 1500.7 kPa | 0.02302
406.02 K, 998.4 kPa | 0.0227
406.18 K, 604.3 kPa | 0.02253
414.76 K, 2496.6 kPa | 0.02664
414.88 K, 1998 kPa | 0.02456
415.04 K, 995.9 kPa | 0.02342
415.04 K, 1502.2 kPa | 0.02374
415.15 K, 604.1 kPa | 0.02337
415.25 K, 2496.6 kPa | 0.02694
415.45 K, 1998 kPa | 0.0246
415.64 K, 604.1 kPa | 0.02346
415.64 K, 1502.2 kPa | 0.02378
415.66 K, 2496.6 kPa | 0.02696
415.68 K, 995.9 kPa | 0.02355
415.92 K, 1998 kPa | 0.02467
416.18 K, 1502.2 kPa | 0.02399
416.19 K, 604.1 kPa | 0.02348
416.22 K, 995.9 kPa | 0.0236
